Results published in PubChem BioAssay (NCI).
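Briefly, cells in 96-well plates were exposed to five compound concentrations for 48 h, and endpoints were estimated by linear interpolation. GI50 is the concentration that inhibits growth by half. TGI: concentration producing complete growth inhibition.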

Columns and labels:
Assay in all cases: inhibition of tumour cell growth, NCI panel, 48 h
SR leukemia = tested on: SR leukemia
UACC-257 melanoma = tested on: UACC-257 melanoma
MOLT-4 leukemia = tested on: MOLT-4 leukemia
SK-MEL-2 melanoma = tested on: SK-MEL-2 melanoma
UO-31 renal = tested on: UO-31 renal
A549 NSCLC = tested on: A549 NSCLC
DU-145 prostate = tested on: DU-145 prostate
CAKI-1 renal = tested on: CAKI-1 renal
COLO 205 colon = tested on: COLO 205 colon
RPMI-8226 leukemia = tested on: RPMI-8226 leukemia
T-47D breast = tested on: T-47D breast
HL-60(TB) leukemia = tested on: HL-60(TB) leukemia
HT29 colon = tested on: HT29 colon
K-562 leukemia = tested on: K-562 leukemia
HCC-2998 colon = tested on: HCC-2998 colon
OVCAR-5 ovarian = tested on: OVCAR-5 ovarian
SK-MEL-5 melanoma = tested on: SK-MEL-5 melanoma
SK-MEL-28 melanoma = tested on: SK-MEL-28 melanoma
TK-10 renal = tested on: TK-10 renal
MDA-MB-435 = tested on: MDA-MB-435
OVCAR-3 ovarian = tested on: OVCAR-3 ovarian
ACHN renal = tested on: ACHN renal
HOP-92 NSCLC = tested on: HOP-92 NSCLC
OVCAR-4 ovarian = tested on: OVCAR-4 ovarian
OVCAR-8 ovarian = tested on: OVCAR-8 ovarian
SNB-75 CNS = tested on: SNB-75 CNS
SN12C renal = tested on: SN12C renal
MALME-3M melanoma = tested on: MALME-3M melanoma
NCI-H226 lung = tested on: NCI-H226 lung
IGROV1 ovarian = tested on: IGROV1 ovarian
KM12 colon = tested on: KM12 colon
MCF7 breast = tested on: MCF7 breast
HCT-116 colon = tested on: HCT-116 colon
NCI-H522 lung = tested on: NCI-H522 lung
NCI/ADR-RES ovarian = tested on: NCI/ADR-RES ovarian
SF-539 CNS = tested on: SF-539 CNS
SF-268 CNS = tested on: SF-268 CNS
M14 melanoma = tested on: M14 melanoma
A498 renal = tested on: A498 renal
LOX IMVI melanoma = tested on: LOX IMVI melanoma
SNB-19 CNS = tested on: SNB-19 CNS
HCT-15 colon = tested on: HCT-15 colon
MDA-MB-231 breast = tested on: MDA-MB-231 breast
HS 578T breast = tested on: HS 578T breast
CCRF-CEM leukemia = tested on: CCRF-CEM leukemia
PC-3 prostate = tested on: PC-3 prostate
786-0 renal = tested on: 786-0 renal
RXF 393 renal = tested on: RXF 393 renal
SF-295 CNS = tested on: SF-295 CNS
SK-OV-3 ovarian = tested on: SK-OV-3 ovarian
SW-620 colon = tested on: SW-620 colon
UACC-62 melanoma = tested on: UACC-62 melanoma
HOP-62 NSCLC = tested on: HOP-62 NSCLC
NCI-H460 lung = tested on: NCI-H460 lung
U251 CNS = tested on: U251 CNS
BT-549 breast = tested on: BT-549 breast
NCI-H23 lung = tested on: NCI-H23 lung

SMILES: CS(=O)(=O)Nc1ccc(Nc2c3ccccc3nc3cc([N+](=O)[O-])ccc23)cc1
- GI50 (SR leukemia): 83.7 nM
- TGI (SR leukemia): 3160 nM
- GI50 (UACC-257 melanoma): 1820 nM
- TGI (UACC-257 melanoma): 6440 nM
- GI50 (MOLT-4 leukemia): 235 nM
- TGI (MOLT-4 leukemia): 1190 nM
- GI50 (SK-MEL-2 melanoma): 3460 nM
- TGI (SK-MEL-2 melanoma): 8850 nM
- GI50 (UO-31 renal): 2390 nM
- TGI (UO-31 renal): 13600 nM
- GI50 (A549 NSCLC): 317 nM
- TGI (A549 NSCLC): 12000 nM
- GI50 (DU-145 prostate): 296 nM
- TGI (DU-145 prostate): 6500 nM
- GI50 (CAKI-1 renal): 2010 nM
- TGI (CAKI-1 renal): 7430 nM
- GI50 (COLO 205 colon): 1430 nM
- TGI (COLO 205 colon): 6060 nM
- GI50 (RPMI-8226 leukemia): 737 nM
- TGI (RPMI-8226 leukemia): 4310 nM
- GI50 (T-47D breast): 107 nM
- TGI (T-47D breast): 2230 nM
- GI50 (HL-60(TB) leukemia): 1690 nM
- TGI (HL-60(TB) leukemia): 5880 nM
- GI50 (HT29 colon): 2140 nM
- TGI (HT29 colon): 6130 nM
- GI50 (K-562 leukemia): 1310 nM
- TGI (K-562 leukemia): 6960 nM
- GI50 (HCC-2998 colon): 1620 nM
- TGI (HCC-2998 colon): 4240 nM
- GI50 (OVCAR-5 ovarian): 7940 nM
- TGI (OVCAR-5 ovarian): 23100 nM
- GI50 (SK-MEL-5 melanoma): 1100 nM
- TGI (SK-MEL-5 melanoma): 4370 nM
- GI50 (SK-MEL-28 melanoma): 2450 nM
- TGI (SK-MEL-28 melanoma): 7760 nM
- GI50 (TK-10 renal): 3380 nM
- TGI (TK-10 renal): 11900 nM
- GI50 (MDA-MB-435): 3320 nM
- TGI (MDA-MB-435): 9060 nM
- GI50 (OVCAR-3 ovarian): 2050 nM
- TGI (OVCAR-3 ovarian): 5870 nM
- GI50 (ACHN renal): 1420 nM
- TGI (ACHN renal): 6740 nM
- GI50 (HOP-92 NSCLC): 590 nM
- TGI (HOP-92 NSCLC): 3740 nM
- GI50 (OVCAR-4 ovarian): 2900 nM
- TGI (OVCAR-4 ovarian): 10400 nM
- GI50 (OVCAR-8 ovarian): 1950 nM
- TGI (OVCAR-8 ovarian): 9530 nM
- GI50 (SNB-75 CNS): 1720 nM
- TGI (SNB-75 CNS): 11800 nM
- GI50 (SN12C renal): 807 nM
- TGI (SN12C renal): 8430 nM
- GI50 (MALME-3M melanoma): 1440 nM
- TGI (MALME-3M melanoma): 4080 nM
- GI50 (NCI-H226 lung): 1260 nM
- TGI (NCI-H226 lung): 6950 nM
- GI50 (IGROV1 ovarian): 1630 nM
- TGI (IGROV1 ovarian): 5170 nM
- GI50 (KM12 colon): 854 nM
- TGI (KM12 colon): 3760 nM
- GI50 (MCF7 breast): 51.1 nM
- TGI (MCF7 breast): 2720 nM
- GI50 (HCT-116 colon): 1100 nM
- TGI (HCT-116 colon): 6160 nM
- GI50 (NCI-H522 lung): 1270 nM
- TGI (NCI-H522 lung): 2800 nM
- GI50 (NCI/ADR-RES ovarian): 10000 nM
- TGI (NCI/ADR-RES ovarian): 26500 nM
- GI50 (SF-539 CNS): 2230 nM
- TGI (SF-539 CNS): 13000 nM
- GI50 (SF-268 CNS): 615 nM
- TGI (SF-268 CNS): 7030 nM
- GI50 (M14 melanoma): 1420 nM
- TGI (M14 melanoma): 5810 nM
- GI50 (A498 renal): 1280 nM
- TGI (A498 renal): 12500 nM
- GI50 (LOX IMVI melanoma): 922 nM
- TGI (LOX IMVI melanoma): 2780 nM
- GI50 (SNB-19 CNS): 1610 nM
- TGI (SNB-19 CNS): 14900 nM
- GI50 (HCT-15 colon): 1380 nM
- TGI (HCT-15 colon): 4010 nM
- GI50 (MDA-MB-231 breast): 2100 nM
- TGI (MDA-MB-231 breast): 6100 nM
- GI50 (HS 578T breast): 2420 nM
- TGI (HS 578T breast): 13400 nM
- GI50 (CCRF-CEM leukemia): 352 nM
- TGI (CCRF-CEM leukemia): 2790 nM
- GI50 (PC-3 prostate): 1590 nM
- TGI (PC-3 prostate): 11800 nM
- GI50 (786-0 renal): 1390 nM
- TGI (786-0 renal): 10600 nM
- GI50 (RXF 393 renal): 1890 nM
- TGI (RXF 393 renal): 4860 nM
- GI50 (SF-295 CNS): 1420 nM
- TGI (SF-295 CNS): 7770 nM
- GI50 (SK-OV-3 ovarian): 3500 nM
- TGI (SK-OV-3 ovarian): 15100 nM
- GI50 (SW-620 colon): 1090 nM
- TGI (SW-620 colon): 6000 nM
- GI50 (UACC-62 melanoma): 1320 nM
- TGI (UACC-62 melanoma): 6310 nM
- GI50 (HOP-62 NSCLC): 399 nM
- TGI (HOP-62 NSCLC): 3790 nM
- GI50 (NCI-H460 lung): 41 nM
- TGI (NCI-H460 lung): 2750 nM
- GI50 (U251 CNS): 911 nM
- TGI (U251 CNS): 11300 nM
- GI50 (BT-549 breast): 2290 nM
- TGI (BT-549 breast): 9320 nM
- GI50 (NCI-H23 lung): 1690 nM
- TGI (NCI-H23 lung): 5470 nM
